The text below walks through data of patent US8980906B2, “Pyridonemorphinan analogs and biological activity on opioid receptors” (Purdue Pharma L.P., priority 2012, dated 2015).

What is called EC50 is the concentration at which the effect is half-maximal. The Emax is the maximal effect, on the per cent scale that the assay sets.

Type in all cases: biochemical
Assay [1] deals with T1, μ-opioid receptor (Homo sapiens (Human), UniProt P35372). Kind of assay: μ-opioid receptor [35S]GTPγS functional assay, U-2 OS cells. The conditions noted are these: for Emax: relative to DAMGO, U-2 OS cells. On the procedure: (§1) μ-Opioid Receptor Functional Assay Procedures: [^35S]GTPγS functional assays were conducted using freshly thawed μ-receptor membranes prepared in-house from a cell line expressing recombinant μ opioid receptor in a HEK-293, CHO or U-2 OS cell background, or purchased from a commercial source (Perkin Elmer, Shelton, Conn.; or DiscovRx, Fremont, Calif.). Assay reactions were prepared by sequentially adding the following reagents to binding buffer (100 mM NaCl, 10 mM MgCl2, 20 mM HEPES, pH 7.4) on ice (final concentrations indicated): membrane protein (0.026 mg/mL), saponin ([…]), GDP ([…]) and [^35S]GTPγS (0.20 nM; Perkin Elmer, Shelton, Conn.). The prepared membrane solution (190 μl/well) was transferred to 96-shallow well polypropylene plates containing 10 μl of 20× concentrated stock solutions of the agonist [D-Ala^2, N-methyl-Phe^4 Gly-ol^5]-enkephalin (DAMGO) prepared in dimethyl sulfoxide (DMSO). Plates were incubated for 30 min at about 25° C. with shaking. Reactions were terminated by rapid filtration onto 96-well Unifilter GF/B filter plates (Perkin Elmer, Shelton, Conn.) using a 96-well tissue harvester (Perkin Elmer, Shelton, Conn.) followed by three filtration washes with 200 μl of ice-cold wash buffer (10 mM NaH2PO4, 10 mM Na2HPO4, pH 7.4). Filter plates were subsequently dried at 50° C. for 2-3 hours. BetaScint scintillation cocktail (Perkin Elmer, Shelton, Conn.) was added (50 μl/well) and plates were counted using a Packard Top-Count for 1 min/well. Data were analyzed using the sigmoidal dose-response curve fitting functions in GraphPad PRISM v. 3.0, or an in-house function for non-linear, sigmoidal dose-response curve-fitting.
(§2) μ-Opioid Receptor Functional Data: μ GTP EC50 is the concentration of a compound providing 50% of the maximal response for the compound at a μ-opioid receptor.
(§3) μ GTP Emax (%) is the maximal effect elicited by a compound relative to the effect elicited by DAMGO, a standard μ agonist. Generally, the μ GTP Emax (%) value measures the efficacy of a compound to treat or prevent pain or other Conditions.
(§4) The following TABLE 3 provides results on the activity response of certain Compounds of the Invention at the μ- and κ-opioid receptors determined as described above using U-2 OS cells.

Assay [2] concerns the target T2, κ-opioid receptor (Homo sapiens (Human), UniProt P41145). Kind of assay: κ-opioid receptor [35S]GTPγS functional assay, U-2 OS cells. The conditions noted are these: for Emax: relative to U69,593, U-2 OS cells. As for the experimental part: (§5) κ-Opioid Receptor Functional Assay Procedures: Functional [^35S]GTPγS binding assays were conducted as follows. κ opioid receptor membrane solution was prepared by sequentially adding final concentrations of 0.026 μg/μl κ membrane protein (in-house), 10 μg/mL saponin, 3 μM GDP and 0.20 nM [^35S]GTPγS to binding buffer (100 mM NaCl, 10 mM MgCl2, 20 mM HEPES, pH 7.4) on ice. The prepared membrane solution (190 μl/well) was transferred to 96-shallow well polypropylene plates containing 10 μl of 20× concentrated stock solutions of agonist prepared in DMSO. Plates were incubated for 30 min at a temperature of about 25° C. with shaking. Reactions were terminated by rapid filtration onto 96-well Unifilter GF/B filter plates (Perkin Elmer, Shelton, Conn.) using a 96-well tissue harvester (Packard) and followed by three filtration washes with 200 μl ice-cold binding buffer (10 mM NaH2PO4, 10 mM Na2HPO4, pH 7.4). Filter plates were subsequently dried at 50° C. for 2-3 hours. Fifty μl/well scintillation cocktail (Perkin Elmer, Shelton, Conn.) was added and plates were counted in a Packard Top-Count for 1 min/well.
(§6) κ-Opioid Receptor Functional Data: κ GTP EC50 is the concentration of a compound providing 50% of the maximal response for the compound at a κ receptor.
(§7) κ GTP Emax (%) is the maximal effect elicited by a compound relative to the effect elicited by U69,593.
as §4

Assay [3] addresses T1, μ-opioid receptor. Nature of the assay: μ-opioid receptor [35S]GTPγS functional assay, HEK-293 or CHO cells. On the procedure: as §1, §2, §3
(§8) In TABLE 2, activity response of certain Compounds of the Invention to the μ-, δ- and κ-opioid receptors was determined as described above for functional assays using HEK-293 or CHO cells.
Background: GTPγS is a poorly hydrolysed GTP analogue; its binding reports G protein activation.

Assay [4] has as its target T2, κ-opioid receptor. Nature of the assay: κ-opioid receptor [35S]GTPγS functional assay, HEK-293 or CHO cells. As for the experimental part: as §5, §6, §7, §8

For the compound `CN1CC[C@]23Cc4c(cc(C(N)=O)c(=O)n4C)C[C@@]2(O)[C@H]1Cc1ccc(O)cc13` [Compound 39, (6R,6aS,12aR)-2,6a-dihydroxy-11,15-dimethyl-10-oxo-6,6a,7,10,11,12-hexahydro-5H-6,12a-(epiminoethano)naphtho[2,1-g]quinoline-9-carboxamide], at μ-opioid receptor [1], the EC50 came to 164 ± 59 nM and the Emax was found to be 33.7 ± 8.01%. On κ-opioid receptor [2], this compound gave an EC50 of 641.6 ± 3.49 nM and an Emax of 54 ± 3.61%.
The like results for `NC(=O)c1cc2c([nH]c1=O)C[C@]13CCN(CC(F)(F)F)[C@H](Cc4ccc(O)cc41)[C@]3(O)C2` [Compound 34, (6R,6aS,12aR)-2,6a-dihydroxy-10-oxo-15-(2,2,2-trifluoroethyl)-6,6a,7,10,11,12-hexahydro-5H-6,12a-(epiminoethano)naphtho[2,1-g]quinoline-9-carboxamide] were, in that order, over 20000 nM, 8.5%, over 20000 nM and 0%.
For `COc1ccc2c(c1)[C@]13CCN(C)[C@H](C2)[C@]1(O)Cc1cc(C(=O)O)c(=O)[nH]c1C3` [Compound 40, (6R,6aS,12aR)-6a-hydroxy-2-methoxy-15-methyl-10-oxo-6,6a,7,10,11,12-hexahydro-5H-6,12a-(epiminoethano)naphtho[2,1-g]quinoline-9-carboxylic acid] the same measures were 13900 ± 1630 nM, 72 ± 4.16%, over 20000 nM and 96 ± 1.53%.
For `CC(C)CCNC(=O)c1cc2c([nH]c1=O)C[C@]13CCN(C)[C@H](Cc4ccc(O)cc41)[C@]3(O)C2` [Compound 49, (6R,6aS,12aR)-2,6a-dihydroxy-N-isopentyl-15-methyl-10-oxo-6,6a,7,10,11,12-hexahydro-5H-6,12a-(epiminoethano)naphtho[2,1-g]quinoline-9-carboxamide] the same measures were 445 ± 63.8 nM, 80 ± 3.61%, 204 ± 68.1 nM and 63 ± 1.73%.
As for `NC(=O)c1cc2c([nH]c1=O)C[C@]13CCN(CCc4ccccc4)[C@H](Cc4ccc(O)cc41)[C@]3(O)C2` [Compound 37, (6R,6aS,12aR)-2,6a-dihydroxy-10-oxo-15-phenethyl-6,6a,7,10,11,12-hexahydro-5H-6,12a-(epiminoethano)naphtho[2,1-g]quinoline-9-carboxamide], the EC50 at μ-opioid receptor [1] is 72.7 ± 3.87 nM; on κ-opioid receptor [2], 374 ± 93.5 nM; on μ-opioid receptor [3] it was 268 ± 53.1 nM; on κ-opioid receptor [4], over 20000 nM. The Emax stood at 71.3 ± 0.33% at μ-opioid receptor [1]; 11.3 ± 1.45% on κ-opioid receptor [2]; 98 ± 4.62% at μ-opioid receptor [3] (relative to DAMGO, HEK-293 or CHO cells); 2.5% on κ-opioid receptor [4] (relative to U69,593, HEK-293 or CHO cells).
At μ-opioid receptor [1], `O=C(c1cc2c([nH]c1=O)C[C@]13CCN(CC4CC4)[C@H](Cc4ccc(O)cc41)[C@@H]3C2)N1CCCC1` [Compound 55, (6R,6aS,12R)-15-(cyclopropylmethyl)-2-hydroxy-9-(pyrrolidine-1-carbonyl)-6,6a,7,12-tetrahydro-5H-6,12a-(epiminoethano)naphtho[2.1-g]quinolin-10(11H)-one] displayed an EC50 of 0.79 ± 0.31 nM and an Emax of 17.6 ± 0.68%. Besides, at κ-opioid receptor [2], the EC50 was 0.33 ± 0.037 nM and the Emax came to 86 ± 2.68%.
For `CN(C)C(=O)c1cc2c([nH]c1=O)C[C@]13CCN(C)[C@H](Cc4ccc(O)cc41)[C@]3(O)C2` [Compound 46, (6R,6aS,12aR)-2,6a-dihydroxy-N,N,15-trimethyl-10-oxo-6,6a,7,10,11,12-hexahydro-5H-6,12a-(epiminoethano)naphtho[2,1-g]quinoline-9-carboxamide] the same measures were 157 ± 16.4 nM, 84.7 ± 2.19%, 624 ± 83.6 nM and 73 ± 6.99%.
The like results for `CN1CC[C@]23Cc4[nH]c(=O)c(C(=O)N5CCCC5)cc4C[C@@]2(O)[C@H]1Cc1ccc(O)cc13` [Compound 48, (6R,6aS,12aR)-2,6a-dihydroxy-15-methyl-9-(pyrrolidine-1-carbonyl)-6a,7,11,12-tetrahydro-5H-6,12a-(epiminoethano)naphtho[2,1-g]quinolin-10(6H)-one] were, in that order, 97.4 ± 4.35 nM, 82.7 ± 0.88%, 226 ± 4.41 nM and 90.3 ± 5.46%.
At μ-opioid receptor [1], `CN1CC[C@]23Cc4[nH]c(=O)c(C(=O)N[C@@H](Cc5ccccc5)C(N)=O)cc4C[C@@]2(O)[C@H]1Cc1ccc(O)cc13` [Compound 51, (6R,6aS,12R)—N—((S)-1-amino-1-oxo-3-phenylpropan-2-yl)-2,6a-dihydroxy-15-methyl-10-oxo-6,6a,7,10,11,12-hexahydro-5H-6,12a-(epiminoethano)naphtho[2.1-g]quinoline-9-carboxamide] gave an EC50 of 126 ± 14.3 nM and an Emax of 97.7 ± 1.45%. For the same compound, on κ-opioid receptor [2], the EC50 turned out to be 488 ± 79.4 nM and the Emax came to 39.3 ± 3.84%.
Take `CN1CC[C@]23Cc4[nH]c(=O)c(C(=O)N5CCC[C@H]5C(N)=O)cc4C[C@@]2(O)[C@H]1Cc1ccc(O)cc13` [Compound 53, (S)-1-((6R,6aS,12R)-2,6a-dihydroxy-15-methyl-10-oxo-6,6a,7,10,11,12-hexahydro-5H-6,12a-(epiminoethano)naphtho[2.1-g]quinoline-9-carbonyl)pyrrolidine-2-carboxamide]: at μ-opioid receptor [1], the response was half-maximal at 123 ± 6.15 nM (EC50) and the Emax came out at 84 ± 2.08%. At κ-opioid receptor [2], this compound returned an EC50 of 602 ± 173 nM and an Emax of 68.3 ± 3.38%.
For `COc1ccc2c(c1)[C@]13CCN[C@H](C2)[C@]1(O)Cc1cc(C(N)=O)c(=O)[nH]c1C3` [Compound 32, (6R,6aS,12aR)-6a-hydroxy-2-methoxy-10-oxo-6,6a,7,10,11,12-hexahydro-5H-6,12a-(epiminoethano)naphtho[2,1-g]quinoline-9-carboxamide] the same measures were over 20000 nM, 17.5%, over 20000 nM and 6.7 ± 6.56%.
